From PMC11532494 (Nature Communications, 2024)
Where “and” joins values, the source holds several entries; their conditions need not be identical. Equal entries are not always repeated. Where two headings read alike, the source gives them in different places. No end group written: not given here. *: point of attachment. AMC = Cc1cc(=O)oc2cc(N*)ccc12

What was measured:
[1] = test system: VcHdaH (5b); assay type: biochemical, Vibrio cholerae
[2] = target: T1, LcApaH (3) (Legionella cherrii, UniProt A0A0W0SGS1); assay type: biochemical
[3] = test system: Controls; assay type: biochemical
[4] = test system: Controls; assay type: biochemical; remark: listed apart in the source
[5] = test system: RsPrpH (1b); assay: Substrate screening assay (acyl-peptide-AMC); assay type: biochemical, Rhizorhabdus sp.
[6] = target: T2, RwDmhA (1b) (Rhizorhabdus wittichii, UniProt A0A067XIQ6); assay type: biochemical
[7] = target: T3, LpApaH (3) (Legionella pneumophila, UniProt A0A2S6EWV0); assay type: biochemical
[8] = target: T4, PsApaH (4) (Pseudomonas sp. M30-35, UniProt A0A1Y0KY79); assay type: biochemical
Experimental: (§1) Experiments with SIRT2 and SIRT5 were supplemented with NAD^+ (500 µM). Thereafter, a solution of trypsin (25 µL, 5.0 mg/mL; final concentration of 2.5 mg/mL) was added, and the development of the assay was allowed to proceed for 90 min at room temperature before fluorescence analysis. […] To this end, a single category is given to all conversions >48% on the heatmap. […] For the H4-derived peptide LGKbio no positive control was available.

[9] = target: T5, KpHdaH (1b) (Klebsiella pneumoniae, UniProt A0A377Z5F6); assay type: biochemical
[10] = test system: VsHdaH (1b); assay type: biochemical, Vibrio sp.
[11] = target: T6, BsAcuC (2c) (Bacillus subtilis, UniProt P39067); assay: Substrate screening assay (acyl-peptide-AMC); assay type: biochemical
T6 construct: made in house; host or cells: E. coli BL21 (DE3)
T6 sequence (P39067 1-387): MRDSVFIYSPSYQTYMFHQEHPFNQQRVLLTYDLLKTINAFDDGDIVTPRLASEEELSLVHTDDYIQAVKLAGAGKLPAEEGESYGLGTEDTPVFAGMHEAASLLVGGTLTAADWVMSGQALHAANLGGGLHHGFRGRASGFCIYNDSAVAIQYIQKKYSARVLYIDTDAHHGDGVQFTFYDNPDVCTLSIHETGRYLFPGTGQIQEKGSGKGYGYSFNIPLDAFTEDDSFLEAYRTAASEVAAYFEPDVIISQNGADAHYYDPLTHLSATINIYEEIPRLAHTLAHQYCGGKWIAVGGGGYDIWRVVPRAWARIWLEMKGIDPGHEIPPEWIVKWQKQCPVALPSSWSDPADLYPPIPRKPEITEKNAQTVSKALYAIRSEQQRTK
Experimental: as §1

[12] = target: T3, LpApaH (3); assay type: biochemical; remark: listed apart in the source
Target sequence in this assay (A0A2S6EWV0 1-426): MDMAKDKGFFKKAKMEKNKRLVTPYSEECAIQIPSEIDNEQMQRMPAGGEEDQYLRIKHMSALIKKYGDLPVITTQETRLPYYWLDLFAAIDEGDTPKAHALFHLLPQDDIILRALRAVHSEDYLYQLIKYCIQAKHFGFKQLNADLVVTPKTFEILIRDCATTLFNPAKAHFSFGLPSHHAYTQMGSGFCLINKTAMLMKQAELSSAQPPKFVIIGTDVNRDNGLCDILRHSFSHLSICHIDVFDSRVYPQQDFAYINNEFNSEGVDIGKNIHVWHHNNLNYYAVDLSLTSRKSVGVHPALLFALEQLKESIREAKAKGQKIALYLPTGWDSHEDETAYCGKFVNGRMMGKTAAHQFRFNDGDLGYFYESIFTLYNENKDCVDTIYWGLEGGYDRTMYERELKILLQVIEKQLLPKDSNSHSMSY

[13] = target: T1, LcApaH (3); assay type: biochemical; conditions: LcApaH (3); single samples (replicates)
Target sequence in this assay (A0A0W0SGS1 1-425): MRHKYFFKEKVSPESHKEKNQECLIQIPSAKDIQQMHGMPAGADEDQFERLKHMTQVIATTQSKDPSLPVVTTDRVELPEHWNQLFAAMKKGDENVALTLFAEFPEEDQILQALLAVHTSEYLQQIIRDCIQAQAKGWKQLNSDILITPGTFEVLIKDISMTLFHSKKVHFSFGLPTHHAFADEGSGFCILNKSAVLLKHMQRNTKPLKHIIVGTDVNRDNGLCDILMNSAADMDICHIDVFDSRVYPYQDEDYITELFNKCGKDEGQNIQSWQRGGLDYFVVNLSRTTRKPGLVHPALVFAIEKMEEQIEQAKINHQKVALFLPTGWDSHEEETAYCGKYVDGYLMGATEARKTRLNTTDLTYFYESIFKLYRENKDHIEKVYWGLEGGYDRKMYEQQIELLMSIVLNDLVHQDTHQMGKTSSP

[14] = target: PA1409 (Pseudomonas aeruginosa, UniProt Q9I3T5); assay: Acetyl-polyamine deacetylase assay (positive control); assay type: biochemical
[15] = test system: VsHdaH (1b); assay type: biochemical, Vibrio sp.; conditions: VsHdaH (1b) 3µM; single samples (replicates)
[16] = target: T5, KpHdaH (1b); assay type: biochemical; conditions: KpKDAC (1b); single samples (replicates)
Target sequence in this assay (A0A377Z5F6 1-371): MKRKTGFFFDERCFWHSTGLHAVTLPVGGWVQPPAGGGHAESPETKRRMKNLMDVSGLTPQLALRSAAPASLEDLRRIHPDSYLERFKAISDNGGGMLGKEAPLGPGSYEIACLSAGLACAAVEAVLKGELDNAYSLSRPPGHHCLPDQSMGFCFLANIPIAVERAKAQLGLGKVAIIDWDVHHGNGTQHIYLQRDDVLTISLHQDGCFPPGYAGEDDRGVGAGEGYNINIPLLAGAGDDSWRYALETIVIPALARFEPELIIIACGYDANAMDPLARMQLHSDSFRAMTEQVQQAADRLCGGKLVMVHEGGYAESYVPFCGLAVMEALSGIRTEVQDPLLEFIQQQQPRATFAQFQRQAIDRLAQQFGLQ

[17] = target: T2, RwDmhA (1b); assay type: biochemical; conditions: RwDmhA (1b) 3µM; single samples (replicates)
Target sequence in this assay (A0A067XIQ6 1-369): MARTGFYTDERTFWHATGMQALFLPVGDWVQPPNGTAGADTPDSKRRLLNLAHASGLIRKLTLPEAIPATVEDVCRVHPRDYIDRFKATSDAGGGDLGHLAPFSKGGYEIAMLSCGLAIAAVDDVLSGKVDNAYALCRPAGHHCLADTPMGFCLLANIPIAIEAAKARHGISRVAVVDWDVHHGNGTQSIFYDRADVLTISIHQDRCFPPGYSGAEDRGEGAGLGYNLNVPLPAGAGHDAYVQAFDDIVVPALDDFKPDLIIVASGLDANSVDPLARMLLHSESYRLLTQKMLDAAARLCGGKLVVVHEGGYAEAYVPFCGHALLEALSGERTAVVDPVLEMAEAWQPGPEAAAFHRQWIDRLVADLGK

[18] = test system: RsPrpH (1b); assay: Acetyl-polyamine deacetylase assay; assay type: biochemical, Rhizorhabdus sp.; conditions: RsPrpH 3µM; single samples (replicates)
[19] = target: T6, BsAcuC (2c); assay: Acetyl-polyamine deacetylase assay; assay type: biochemical; conditions: BsAcuC (2c) 3µM; single samples (replicates)
[20] = test system: VcHdaH (5b); assay: Acetyl-polyamine deacetylase assay; assay type: biochemical, Vibrio cholerae; conditions: VcHdaH (5b) 6µM; single samples (replicates)
[21] = target: T4, PsApaH (4); assay: Acetyl-polyamine deacetylase assay; assay type: biochemical; conditions: single samples (replicates)
Target sequence in this assay (A0A1Y0KY79 1-342 limits assumed): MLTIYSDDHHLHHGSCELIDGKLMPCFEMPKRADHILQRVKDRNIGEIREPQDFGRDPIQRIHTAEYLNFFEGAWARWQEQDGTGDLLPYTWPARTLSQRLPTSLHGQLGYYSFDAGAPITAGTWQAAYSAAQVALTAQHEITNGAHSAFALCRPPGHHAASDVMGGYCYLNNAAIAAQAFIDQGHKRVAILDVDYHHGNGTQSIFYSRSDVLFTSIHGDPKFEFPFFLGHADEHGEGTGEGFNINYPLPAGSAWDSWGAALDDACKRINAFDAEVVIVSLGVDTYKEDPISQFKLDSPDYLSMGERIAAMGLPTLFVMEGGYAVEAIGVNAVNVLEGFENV

[22] = substrate screening, mean of two measurements
[23] = substrate screening, measurement 1 of two
[24] = substrate screening, measurement 2 of two
[25] = PA1409 (positive control enzyme), single samples (replicates)

Sequence of PA1409 (Q9I3T5 whole entry): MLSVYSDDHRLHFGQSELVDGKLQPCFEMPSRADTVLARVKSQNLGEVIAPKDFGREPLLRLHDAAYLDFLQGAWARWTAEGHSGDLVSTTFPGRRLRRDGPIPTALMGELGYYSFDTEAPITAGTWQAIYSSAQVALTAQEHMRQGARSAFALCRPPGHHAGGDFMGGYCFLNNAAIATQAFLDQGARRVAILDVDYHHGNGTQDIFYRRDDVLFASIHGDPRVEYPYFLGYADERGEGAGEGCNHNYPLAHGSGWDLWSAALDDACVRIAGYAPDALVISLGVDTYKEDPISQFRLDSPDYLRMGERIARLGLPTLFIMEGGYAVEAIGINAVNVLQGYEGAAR

“QPKKpal (QPKK-{AMC}; not fully specified (residue 4); printed as QPKKpal; also: palmitoyl-lysine (which Lys not given here); UniProt P04637 317-320, looked up, fragment)” was tested, and the “RFU means, VcHdaH (5b)” value ([1]; means of two measurements) was -8.5 RFU, the “RFU*2 means, VcHdaH (5b)” value ([1]; means of two measurements) was -17 RFU*2 and the “[AMC] (nM), VcHdaH (5b), means” value [1, 22] was -8.30 nM. For the same compound, the “RFU means, LcApaH (3)” value [2] was 26.5 RFU, the “RFU*2 means, LcApaH (3)” value [2] was 53 RFU*2 and the “[AMC] (nM), LcApaH (3), means” value [2] was 25.88 nM. For the same compound, the “RFU means, controls” value [3] was 9515.5 RFU, the “RFU*2, controls” value [3] was 16530 RFU*2 and 21532 RFU*2 and the “RFU*2 means, controls” value [3] was 19031 RFU*2. For the same compound, the “RFU, controls” value [3] was 8265 RFU and 10766 RFU, the “[AMC] (nM), controls, means” value [4] was 9292.48 nM and the “RFU means, RsPrpH (1b)” value [5] was -58.5 RFU. For the same compound, the “RFU*2 means, RsPrpH (1b)” value [5] was -117 RFU*2, the “[AMC] (nM), RsPrpH (1b), means” value [5] was -57.13 nM and the “RFU means, RwDmhA (1b)” value [6] was -48 RFU. For the same compound, the “RFU*2 means, RwDmhA (1b)” value [6] was -96 RFU*2, the “[AMC] (nM), RwDmhA (1b), means” value [6] was -46.88 nM and the “RFU means, LpApaH (3)” value [7] was 16 RFU. For the same compound, the “RFU*2 means, LpApaH (3)” value [7] was 32 RFU*2, the “[AMC] (nM), LpApaH (3), means” value [7] was 15.63 nM and the “RFU means, PsApaH (4)” value ([8]; means of two measurements) was 27 RFU. The “RFU*2 means, PsApaH (4)” value ([8]; means of two measurements) was 54 RFU*2, the “[AMC] (nM), PsApaH (4), means” value [8, 22] was 26.37 nM and the “[AMC] (nM), PsApaH (4)” value [8, 23] was 39.06 nM. The “[AMC] (nM), PsApaH (4)” value [8, 24] was 13.67 nM, the “RFU means, KpHdaH (1b)” value ([9]; means of two measurements) was 2.5 RFU and the “RFU*2 means, KpHdaH (1b)” value ([9]; means of two measurements) was 5 RFU*2. For the same compound, the “[AMC] (nM), KpHdaH (1b), means” value [9, 22] was 2.44 nM, the “[AMC] (nM), KpHdaH (1b)” value [9, 23] was 8.79 nM and the “[AMC] (nM), KpHdaH (1b)” value [9, 24] was -3.91 nM. For the same compound, the “RFU means, VsHdaH (1b)” value ([10]; means of two measurements) was 11 RFU, the “RFU*2 means, VsHdaH (1b)” value ([10]; means of two measurements) was 22 RFU*2 and the “[AMC] (nM), VsHdaH (1b), means” value [10, 22] was 10.74 nM. For the same compound, the “[AMC] (nM), VsHdaH (1b)” value [10, 23] was 40.04 nM, the “[AMC] (nM), VsHdaH (1b)” value [10, 24] was -18.55 nM and the “RFU means, BsAcuC (2c)” value ([11]; means of two measurements) was 77 RFU. For the same compound, the “RFU*2 means, BsAcuC (2c)” value ([11]; means of two measurements) was 154 RFU*2 and the “[AMC] (nM), BsAcuC (2c), means” value [11, 22] was 75.20 nM.
CC(=O)NCCCCCN [N1-acetyl-cadaverine] was tested, and the “acetate released, g/l” value [12] was 0.0236 g/L and 0.04 g/L, the “acetate released, mM” value [12] was 0.39 mM and 0.70 mM and the “mM normalized to enzyme concentration” value [12] was 0.20 mM and 0.35 mM. The “acetate released, g/l” value [13] was 0.0133 g/L and 0.011 g/L, the “acetate released, mM” value [13] was 0.22 mM and 0.18 mM and the “mM normalized to enzyme concentration” value [13] was 0.22 mM and 0.18 mM. The “acetate released, g/l” value [14, 25] was 0.1346 g/L, the “acetate released, mM” value [14, 25] was 2.242 mM and the “mM normalized to enzyme concentration” value [14, 25] was 22.4156 mM. For the same compound, the A1-A2 ([14]; absorbance difference between the two time points, sheet Figure 2d) was 0.543, the “(A1-A2)-B” value ([14]; absorbance difference minus mean blank, sheet Figure 2d) was 0.5015 and the “acetate released, g/l” value [15] was 0.004047 g/L and 0.005091 g/L and 0.00483 g/L. The “acetate released, mM” value [15] was 0.06739 mM and 0.08478 mM and 0.08044 mM, the “mM normalized to enzyme concentration” value [15] was 0.02246 mM and 0.02826 mM and 0.02681 mM and the “acetate released, g/l” value [16] was 0.005 g/L and 0.003 g/L and 0.002 g/L. For the same compound, the “acetate released, mM” value [16] was 0.0755 mM and 0.044 mM and 0.0346 mM, the “mM normalized to enzyme concentration” value [16] was 0.0151 mM and 0.0088 mM and 0.00692 mM and the “acetate released, g/l” value [17] was 0.01449 g/L and 0.01841 g/L and 0.0252 g/L. The “acetate released, mM” value [17] was 0.2413 mM and 0.3065 mM and 0.4196 mM, the “mM normalized to enzyme concentration” value [17] was 0.08044 mM and 0.1022 mM and 0.1399 mM and the “acetate released, g/l” value [18] was 0.02441 g/L and 0.02154 g/L and 0.02285 g/L. For the same compound, the “acetate released, mM” value [18] was 0.4065 mM and 0.3587 mM and 0.3804 mM, the “mM normalized to enzyme concentration” value [18] was 0.1355 mM and 0.1196 mM and 0.1268 mM and the “acetate released, g/l” value [19] was 0.0001305 g/L and -0.0003916 g/L and -0.01371 g/L. For the same compound, the “acetate released, mM” value [19] was 0.002174 mM and -0.006522 mM and -0.2283 mM, the “mM normalized to enzyme concentration” value [19] was 0.0007246 mM and -0.002174 mM and -0.07609 mM and the “acetate released, g/l” value [20] was 0.0009138 g/L and -0.0001305 g/L and 0.0003916 g/L. For the same compound, the “acetate released, mM” value [20] was 0.01522 mM and -0.002174 mM and 0.006522 mM, the “mM normalized to enzyme concentration” value [20] was 0.002536 mM and -0.0003623 mM and 0.001087 mM and the “acetate released, g/l” value [21] was 0.08943 g/L and 0.09204 g/L and 0.09674 g/L. For the same compound, the “acetate released, mM” value [21] was 1.489 mM and 1.533 mM and 1.611 mM.
